Laboratory results: article PMC9779727, “Identification of Novel Artemisinin Hybrids Induce Apoptosis and Ferroptosis in MCF-7 Cells” (International Journal of Molecular Sciences, 2022)

Key:
Format in all cases: cell-based, human
[1] = system: lung cancer A549 cells; test: MTT antiproliferation assay, A549; details: means ± SD, n = 3
Description: (§1) The target hybrids A1–A15 were screened for their antiproliferation activities against five human cancer cell lines (lung cancer A549 cells, breast cancer MCF-7 and MDA-MB-231 cells, colon cancer HCT116 cells and ovarian cancer SK-OV-3 cells) in vitro by the standard MTT method, and 5-fluorouracil (5-FU) and ART were coassayed as controls. […] Therefore, the most promising hybrid, A8, was chosen for further exploration of the preliminary mechanism of MCF-7 cell antiproliferation.
(§2) Cytotoxicity of test compounds against five different tumor cell lines were evaluated using an MTT assay in vitro. Cells were seeded into 96-well plates at a density of 5 × 10^4 cells per well and stabilized at 37 °C with 5% CO2 for 24 h. Compounds A1–A15, ART and 5-FU were added to each well at various concentrations and then the cells were incubated for 48 h. The MTT solution (100 μL 0.5 mg/mL^−1) was added to each well, and the cells were incubated for another 4 h. Then, 150 μL DMSO was added to each well and the absorbance of samples was measured at 492 nm. The IC50 values were calculated according to Logit method after getting the inhibitory rate.

[2] = system: breast cancer MCF-7 cells; test: MTT antiproliferation assay, MCF-7; details: means ± SD, n = 3
Description: as §1, §2

[3] = system: colon cancer HCT116 cells; test: MTT antiproliferation assay, HCT116; details: means ± SD, n = 3
Description: as §1, §2

[4] = system: ovarian cancer SK-OV-3 cells; test: MTT antiproliferation assay, SK-OV-3; details: means ± SD, n = 3
Description: as §1, §2

[5] = system: breast cancer MDA-MB-231 cells; test: MTT antiproliferation assay, MDA-MB-231; details: means ± SD, n = 3
Description: as §1, §2

[6] = system: MCF-7 cells; test: Lipid peroxidation (MDA) detection; details: MCF-7, added to A8 treatment
Description: We also determined the effect of A8 on the expression of GSH and MDA (lipid peroxidation).
Lipid peroxidation assay kit (Beyotime, Shanghai, China) was used to detect malonaldehyde (MDA), together with GSH level assay, present in samples, as per the manufacturer’s instruction with slight modifications.

[7] = system: GPX4; test: Western blotting, GPX4 expression; details: MCF-7, added to A8 treatment
Method: We examined the effect of A8 on the expression of GPX4 as well, which is vital in preventing ferroptosis. […] Thus, we concluded that A8 induced the accumulation of ROS and lipid peroxidation and suppressed GSH levels and the expression of GPX4, thereby leading to the induction of ferroptosis.
MCF-7 cells were seeded at a density of 4 × 10^5 cells per well and treated with various concentrations of compound A8 (0, 2.5, 5 and 10 μM) for 48 h. After this, cells were collected and washed twice with ice-cold DPBS. The pellets were resuspended in a total protein extraction buffer (20 mM HEPES, 350 mM NaCl, 20% glycerol, 1% NP-40, 1 mM MgCl2, 0.5 mM EDTA, 0.1 mM EGTA, 0.1 mM DTT, 0.1 mM PMSF) containing a protease inhibitor cocktail and incubated on ice for 30 min with intermittent mixing. The protein concentration was measured using the Bradford reagent (Bio-Rad Laboratories Inc., Hercules, CA, USA). An equal amount (20 μg) of protein was loaded on 10% polyacrylamide gels and transferred to a nitrocellulose membrane. After blocking with 5% skimmed milk, the membrane was incubated at 4 °C overnight with specific primary antibodies. The membrane was washed and incubated at room temperature for 1 h with secondary antibodies conjugated with horseradish peroxidase (HRP). Finally, the immunoblot was developed for visualization using a chemiluminescence kit. […]

| SMILES | IC50 ([1]; Homo sapiens, A549, 48 h) [µM] | IC50 ([2]; Homo sapiens, MCF7, 48 h) [µM] | IC50 ([3]; Homo sapiens, HCT-116, 48 h) [µM] | IC50 ([4]; Homo sapiens, SK-OV-3, 48 h) [µM] | IC50 ([5]; Homo sapiens, MDA-MB-231, 48 h) [µM] | IC50 ([1]; 48 h) [µM] | IC50 ([2]; 48 h) [µM] | IC50 ([3]; 48 h) [µM] | IC50 ([4]; 48 h) [µM] | IC50 ([5]; 48 h) [µM] | effect on A8-induced lipid peroxide accumulation (in words) [6] | effect on A8-suppressed GPX4 expression (in words) [7] |
| --- | --- | --- | --- | --- | --- | --- | --- | --- | --- | --- | --- | --- |
| O=c1[nH]cc(F)c(=O)[nH]1 [5FU, 5-fluorouracil, reference compound] | > 30 | 26.1 ± 0.87 | 18.4 ± 1.14 | > 30 | 27.7 ± 1.23 | – | – | – | – | – | – | – |
| CC1CCC2C(C)C(OC(=O)CCC(=O)NCc3nnc(Nc4ccc(OC(F)(F)F)cc4)o3)OC3OC4(C)CCC1C32OO4 (centres unmarked) [A1] | – | – | – | – | – | > 30 | 5.2 ± 1.38 | > 30 | > 30 | > 30 | – | – |
| Cc1ccc(Nc2nnc(CNC(=O)CCC(=O)OC3OC4OC5(C)CCC6C(C)CCC(C3C)C46OO5)o2)cc1 (centres unmarked) [A2] | – | – | – | – | – | > 30 | 4.26 ± 0.17 | 14.8 ± 1.77 | > 30 | 4.89 ± 1.58 | – | – |
| CCOc1ccccc1Nc1nnc(CNC(=O)CCC(=O)OC2OC3OC4(C)CCC5C(C)CCC(C2C)C35OO4)o1 (centres unmarked) [A3] | – | – | – | – | – | > 30 | 6.82 ± 0.25 | > 30 | > 30 | > 30 | – | – |
| CC1CCC2C(C)C(OC(=O)CCC(=O)NCc3nnc(Nc4c(F)cccc4F)o3)OC3OC4(C)CCC1C32OO4 (centres unmarked) [A4] | – | – | – | – | – | > 30 | > 30 | > 30 | > 30 | > 30 | – | – |
| CC1CCC2C(C)C(OC(=O)CCC(=O)NCc3nnc(Nc4ccc(C(F)(F)F)cc4)o3)OC3OC4(C)CCC1C32OO4 (centres unmarked) [A5] | – | – | – | – | – | > 30 | > 30 | > 30 | > 30 | > 30 | – | – |
| CC1CCC2C(C)C(OC(=O)CCC(=O)NCc3nnc(Nc4ccc(Cl)cc4)o3)OC3OC4(C)CCC1C32OO4 (centres unmarked) [A6] | – | – | – | – | – | > 30 | > 30 | > 30 | > 30 | > 30 | – | – |
| CC1CCC2C(C)C(OC(=O)CCC(=O)NCc3nnc(Nc4cc(Br)ccc4Br)o3)OC3OC4(C)CCC1C32OO4 (centres unmarked) [A7] | – | – | – | – | – | > 30 | > 30 | > 30 | > 30 | > 30 | – | – |
| CC1CCC2C(C)C(OC(=O)CCC(=O)NCc3nnc(Nc4ccccc4F)o3)OC3OC4(C)CCC1C32OO4 (centres unmarked) [A9] | – | – | – | – | – | > 30 | 8.89 ± 0.39 | > 30 | > 30 | > 30 | – | – |
| CC1CCC2C(C)C(OC(=O)CCC(=O)NCc3nnc(Nc4ccc(C(C)(C)C)cc4)o3)OC3OC4(C)CCC1C32OO4 (centres unmarked) [A10] | – | – | – | – | – | > 30 | 11.1 ± 1.28 | > 30 | > 30 | > 30 | – | – |
| CC1CCC2C(C)C(OC(=O)CCC(=O)NCc3nnc(Nc4ccc(Br)cc4)o3)OC3OC4(C)CCC1C32OO4 (centres unmarked) [A11] | – | – | – | – | – | > 30 | > 30 | > 30 | > 30 | > 30 | – | – |
| Cc1cc(C)cc(Nc2nnc(CNC(=O)CCC(=O)OC3OC4OC5(C)CCC6C(C)CCC(C3C)C46OO5)o2)c1 (centres unmarked) [A13] | – | – | – | – | – | > 30 | 9.72 ± 0.11 | > 30 | > 30 | > 30 | – | – |
| COc1ccc(Nc2nnc(CNC(=O)CCC(=O)OC3OC4OC5(C)CCC6C(C)CCC(C3C)C46OO5)o2)cc1 (centres unmarked) [A14] | – | – | – | – | – | > 30 | 6.86 ± 0.73 | > 30 | > 30 | 19.4 ± 0.91 | – | – |
| Cc1ccc(Nc2nnc(CNC(=O)CCC(=O)OC3OC4OC5(C)CCC6C(C)CCC(C3C)C46OO5)o2)c(C)c1 (centres unmarked) [A15] | – | – | – | – | – | > 30 | > 30 | > 30 | > 30 | > 30 | – | – |
| C[C@@H]1CC[C@H]2[C@@H](C)C(=O)O[C@@H]3O[C@@]4(C)CC[C@@H]1[C@]32OO4 [ART, Artemisinin] | 27.2 ± 0.67 | > 30 | > 30 | > 30 | > 30 | – | – | – | – | – | – | – |
| CCOC(=O)c1ccc(NC2CCCCC2)c(N)c1 [Fer-1, ferrostatin-1, reference compound] | – | – | – | – | – | – | – | – | – | – | reversed lipid peroxide accumulation | restored the expression of GPX4 |
